Where two headings read alike, the source gives them in different places.
Tests used:
[1] = tested on: MRC5 (lung epithelial fibroblast); assay: Extended test against tumor cell lines (ATPlite); type: cell-based; conditions: MRC5 (normal cells), 72 hours
Outline: (§1)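 ATPlite luminescence readout after 72 h compound exposure at 37 °C; survival % = test RLU/control RLU ×100. Final concentrations 4–0.016 μM (4, 1, 0.25, 0.063, 0.016 μM), triplicate wells, 5000 cells/well pre-adhered 24 h.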

AsPC-1 = assay: Extended test against tumor cell lines (ATPlite); type: cell-based; conditions: AsPC-1 (pancreatic cancer), 72 hours
Outline: as §1

COLO205 = assay: Extended test against tumor cell lines (ATPlite); type: cell-based; conditions: COLO205 (colorectal cancer), 72 hours
Outline: as §1

HepG2 = assay: Extended test against tumor cell lines (ATPlite); type: cell-based; conditions: HepG2 (liver cancer), 72 hours
Outline: as §1

H460 = assay: Extended test against tumor cell lines (ATPlite); type: cell-based; conditions: H460 (lung cancer), 72 hours
Outline: as §1

[2] = tested on: WI-38 (human embryonic lung fibroblast); assay: Extended test against tumor cell lines (ATPlite); type: cell-based; conditions: WI-38 (normal cells), 72 hours
Outline: as §1

MIA-PaCa-2 = assay: Extended test against tumor cell lines (ATPlite); type: cell-based; conditions: MIA-PaCa-2 (pancreatic cancer), 72 hours
Outline: as §1

A549 = assay: Extended test against tumor cell lines (ATPlite); type: cell-based; conditions: A549 (lung cancer), 72 hours
Outline: as §1

HT-29 = assay: Extended test against tumor cell lines (ATPlite); type: cell-based; conditions: HT-29 (colorectal cancer), 72 hours
Outline: as §1

Huh-7 = assay: Extended test against tumor cell lines (ATPlite); type: cell-based; conditions: Huh-7 (liver cancer), 72 hours
Outline: as §1

[3] = tested on: tumor cells and normal cells (12 kinds of cells); assay: Extended test against tumor cell lines, statements on the whole panel; type: cell-based; conditions: 12 kinds of cells, 0.016-4 μM, 72 hours
Outline: as §1

BT/Lap^R1.0 = assay: Antitumor bioactivity evaluation, breast cancer cells (ATPlite); type: cell-based, human
Outline: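 ATPlite luminescence read-out after 72 h exposure at 37 °C; cell survival expressed as % of solvent-matched control RLU. Compound tested at 5 μM final, with or without 1 μM lapatinib, on cells plated 24 h earlier at 5000 per well.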

[4] = tested on: six human breast cancer cell strains; assay: Antitumor activity evaluation, statements on the whole panel; type: cell-based; conditions: compound alone
Source text: In antitumor activity evaluation, six human breast cancer cell strains are selected, including BT474, SK-BR3 which are human breast cancer cell strains sensitive to lapatinib, BT/Lap^R1.0, SK/Lap^R1.0 which are human breast cancer cell strains with secondary resistance to lapatinib, MDA-MB-361, MDA-MB-453 which are human breast cancer cell strains with natural resistance tolapatinib.
Antitumor bioactivity evaluation of the compounds of Examples according to the method described below
Cells plating: a 100 mm culture dish with overgrown adherent cells was digested with 1 ml 0.25% trypsin (GIBCO) at 37° C. for 5 min, and the reaction was terminated with 2 ml culture medium (containing 10% FBS, GIBCO). The cells were scattered and collected, after counting, diluted to 1×10^5 cells/ml, and seeded into a 96-well plate at 50 μl/well, 5000 cells/well, excluding the peripheral circle of wells in which no cell was added, but PBS was added, 60 wells in total, and then incubated at 37° C. for 24 hours for adhering.
Addition of the compound and lapatinib: the test sample was diluted to a final concentration of 5 μM, and the culture medium with the corresponding compound solvent concentration was filled in the control well, the compound solvent concentration was kept consistent in each well, 5 parellel wells were set for each concentration, 25 μl each well, 25 μl culture medium (in combined group, 25 μl lapatinib was added till a final concentration of 1 μM) supplemented, followed by incubation at 37° C. for 72 hours.
Test after incubation at 37° C. for 72 hours: 50 μL of ATPlite kit substrate solution was added in each well, and vibrated for 3 min, followed by placing aside in darkness for 10 min, and then supernatant 100 μl/well was taken and placed on aluminescence test plate; the luminescence test plate that has been fully incubated was placed in a luminescence test instrument, to read luminescence value.
1. Cell survival rate (%)=Experimental group RLU/control group RLU×100%. The experimental data were subjected to data analysis and processing by utilizing GraphPad software.

Q: CSc1nccc(N2CCC(N(C)Cc3ccc(C#N)cc3)CC2)n1 [Example 36, N-methyl-N-(4-cyanobenzyl)-N-[1-(2-methylthiopyrimidin-4-yl)piperidin-4-yl]amine] was tested. Which Survival rate ([1]; 0.016 μM) did it give?
A: 96.8%

Q: And the Survival rate ([1]; 0.063 μM)?
A: 96.1%

Q: What about the Survival rate ([1]; 0.25 μM) of the same compound?
A: 91.0%

Q: And the Survival rate ([1]; 1 μM)?
A: 76.1%

Q: What about the Survival rate ([1]; 4 μM) of the same compound?
A: 39.1%

Q: What about the Survival rate (AsPC-1; 0.016 μM) of the same compound?
A: 96.8%

Q: What about the Survival rate (AsPC-1; 0.063 μM) of the same compound?
A: 99.4%

Q: And the Survival rate (AsPC-1; 0.25 μM)?
A: 94.9%

Q: What about the Survival rate (AsPC-1; 1 μM) of the same compound?
A: 90.0%

Q: And the Survival rate (AsPC-1; 4 μM)?
A: 57.2%

Q: What about the Survival rate (COLO205; 0.016 μM) of the same compound?
A: 96.7%

Q: What about the Survival rate (COLO205; 0.063 μM) of the same compound?
A: 96.9%

Q: And the Survival rate (COLO205; 0.25 μM)?
A: 95.3%

Q: What about the Survival rate (COLO205; 1 μM) of the same compound?
A: 84.5%

Q: What about the Survival rate (COLO205; 4 μM) of the same compound?
A: 4.9%

Q: What about the Survival rate (HepG2; 0.016 μM) of the same compound?
A: 98.8%

Q: And the Survival rate (HepG2; 0.063 μM)?
A: 97%

Q: What about the Survival rate (HepG2; 0.25 μM) of the same compound?
A: 94.7%

Q: What about the Survival rate (HepG2; 1 μM) of the same compound?
A: 77.1%

Q: What about the Survival rate (HepG2; 4 μM) of the same compound?
A: 4.5%

Q: And the Survival rate (H460; 0.016 μM)?
A: 99.4%

Q: What about the Survival rate (H460; 0.063 μM) of the same compound?
A: 99.3%

Q: And the Survival rate (H460; 0.25 μM)?
A: 97.3%

Q: What about the Survival rate (H460; 1 μM) of the same compound?
A: 93.6%

Q: What about the Survival rate (H460; 4 μM) of the same compound?
A: 19.1%

Q: What about the Survival rate ([2]; 0.016 μM) of the same compound?
A: 93.9%

Q: And the Survival rate ([2]; 0.063 μM)?
A: 93.7%

Q: What about the Survival rate ([2]; 0.25 μM) of the same compound?
A: 91.5%

Q: What about the Survival rate ([2]; 1 μM) of the same compound?
A: 82.0%

Q: And the Survival rate ([2]; 4 μM)?
A: 51.1%

Q: What about the Survival rate (MIA-PaCa-2; 0.016 μM) of the same compound?
A: 91.6%

Q: What about the Survival rate (MIA-PaCa-2; 0.063 μM) of the same compound?
A: 92.2%

Q: What about the Survival rate (MIA-PaCa-2; 0.25 μM) of the same compound?
A: 91.2%

Q: What about the Survival rate (MIA-PaCa-2; 1 μM) of the same compound?
A: 66.0%

Q: What about the Survival rate (MIA-PaCa-2; 4 μM) of the same compound?
A: 22.2%

Q: And the Survival rate (A549; 0.016 μM)?
A: 98.9%

Q: And the Survival rate (A549; 0.063 μM)?
A: 97.6%

Q: And the Survival rate (A549; 0.25 μM)?
A: 95.3%

Q: And the Survival rate (A549; 1 μM)?
A: 75.8%

Q: What about the Survival rate (A549; 4 μM) of the same compound?
A: 46.5%

Q: What about the Survival rate (HT-29; 0.016 μM) of the same compound?
A: 97.5%

Q: And the Survival rate (HT-29; 0.063 μM)?
A: 94.3%

Q: And the Survival rate (HT-29; 0.25 μM)?
A: 90.9%

Q: And the Survival rate (HT-29; 1 μM)?
A: 79.0%

Q: What about the Survival rate (HT-29; 4 μM) of the same compound?
A: 27.1%

Q: What about the Survival rate (Huh-7; 0.016 μM) of the same compound?
A: 90.9%

Q: And the Survival rate (Huh-7; 0.063 μM)?
A: 88.2%

Q: What about the Survival rate (Huh-7; 0.25 μM) of the same compound?
A: 83.0%

Q: What about the Survival rate (Huh-7; 1 μM) of the same compound?
A: 65.4%

Q: What about the Survival rate (Huh-7; 4 μM) of the same compound?
A: 14.3%

Q: What about the “inhibition of tumor cells versus cytotoxicity to normal cells” value [3] of the same compound?
A: certain inhibition and cytotoxicity to either tumor cells or normal cells, without significant difference

Q: And the IC50 (BT/Lap^R1.0)?
A: 1.47 µM

Q: What about the IC50 (BT/Lap^R1.0; Homo sapiens) of the same compound?
A: 1.41 µM

Q: What about the inhibition at 5 µM (BT/Lap^R1.0; Homo sapiens, test sample 5 μM, 72 hours, read-out: Inhibitory Rate % BT/Lap^R1.0) of the same compound?
A: 76.2%

Q: And the “growth inhibition to the six human breast cancer cell strains” value [4]?
A: relatively significant growth inhibition
